Results from patent US20200038414A1, “METHODS OF TREATING CONSTIPATION USING AMINOSTEROL COMPOSITIONS” (Enterin, Inc., priority 2018, published 2020).
“And” between values parts separate entries of the source, which are not always exact repeats. Identical values can stand only once.

What was measured:
[1] = test system: PD patients with constipation; assay: Phase 2 trial Stage 2: bowel function under daily oral dosing (escalation, fixed dose, randomization, wash-out); type: in vivo, human; settings: for CSBM/week: randomized cohort
Description: (§1) In Stage 2, 34 patients were evaluated.
The primary efficacy outcome variable was whether or not a subject was a “success” or “failure”. This is an endpoint based on subject diary entries for the “fixed dose” period prior to the endpoint assessment defined as average complete stool frequency increase by 1 or more over baseline, or 3 or more complete spontaneous stools/week. The subject was deemed a “success” if s/he met one or more of the criteria listed above, otherwise the subject was deemed a “failure”. The primary analysis was based on all subjects with a baseline assessment and an assessment at the end of the “fixed-dose” period and was a comparison of the proportion of successes with 0.10 (the null hypothesis corresponding to no treatment effect).

[2] = test system: PD patients with constipation; assay: Phase 2 trial Stage 2: adverse events; type: in vivo, human
Description: as §1

[3] = test system: PD patients with constipation; assay: Phase 2 trial Stage 1: prokinetic response to single escalating oral doses; type: in vivo, human; settings: Stage 1, single oral dose
Text: (§2) Tolerability limits included diarrhea or vomiting.

[4] = test system: PD patients with constipation; assay: Phase 2 trial Stage 2: CNS symptoms (UPDRS, MMSE, PDHQ, BDI-II); type: in vivo, human; settings: for PDHQ (Mean): baseline 1.3 (2.99); for BDI-II (Mean): baseline 10.9 (7.12)
Description: (9) Unified Parkinson's Disease Rating Scale (UPDRS), which consists of 42 items in four subscales (Part I=Non-Motor Aspects of Experiences of Daily Living (nM-EDL) (1.1 cognitive impairment, 1.2 hallucinations and psychosis, 1.3 depressed mood; Part II=Motor Aspects of Experiences of Daily Living (M-EDL), Part III=Motor Examination, and Part IV=Motor Complications;
Assessments were made at baseline and at the end of the fixed dose and washout periods. Circadian system status was evaluated by continuously monitoring wrist skin temperature (Thermochron iButton DS1921H; Maxim, Dallas) following published procedures (Sarabia et al. 2008).
An exploratory analysis was done with respect to the sleep data, the body temperature data, mood, fatigue, hallucinations, cognition and other motor and non-motor symptoms of PD. Continuous measurements within a subject were compared with a paired t-test and continuous measurements between subject groups were compared with a two-group t-test. Categorical data were compared with a chi-squared test or a Fisher's exact test if the expected cell counts are too small for a chi-squared test.
CNS symptoms were evaluated at baseline and at the end of the fixed dose period and the wash-out period (Table 11). Total UPDRS score was 64.4 at baseline, 60.6 at the end of the fixed dose period and 55.7 at the end of the wash-out period (p=0.002); similarly, the motor component of the UPDRS improved from 35.3 at baseline to 33.3 at the end of fixed dose to 30.2 at the end of wash-out (p=0.006). MMSE improved from 28.4 at baseline to 28.7 during treatment and to 29.3 during wash-out (p=0.0006). […] PDHQ improved from 1.3 at baseline to […] during treatment and 0.9 during wash-out (p=0.03). Hallucinations were reported by 5 patients at baseline and delusions in 1 patient. […] Unlike stool-related indices, the improvement in many CNS symptoms persisted during wash-out.

[5] = test system: C. elegans model of PD; settings: cited from earlier work
[6] = test system: PD patients with constipation; assay: Phase 2 trial, both Stages: adverse events in all dosed patients (n = 44); type: in vivo, human
Description: Adverse events were coded using the current version of MedDRA. Severity of AEs were assessed by investigators according to CTCAE (v4.03): Grade 1 is labeled as Mild, Grade 2 as Moderate, and Grade 3 and above as Severe. […] The number (percentage) of subjects who experienced an AE during escalation and fixed dosing periods were summarized by dose level and overall for each stage. The denominator for calculating the percentages were based on the number of subjects ever exposed to each dose and overall.

[7] = test system: PD patients with constipation; assay: Phase 2 trial Stage 1: adverse events; type: in vivo, human; settings: Stage 1, dosed 10
Text: as §2

[8] = molecular target: αS (Homo sapiens, UniProt P37840); settings: in vitro; cited from earlier work
[9] = test system: mouse models of PD; settings: several mouse models of PD; cited from earlier work
[10] = following systemic administration, in mice; into the duodenum through the biliary tract; cited from earlier work
[11] = test system: PD population with constipation; settings: short term placebo controlled trial in PD; loose stools/diarrhea in place of constipation; cited from earlier work
[12] = Stage 2, dosed 34, unrelated to ENT-01

## CC(C)[C@@H](CC[C@@H](C)[C@H]1CC[C@H]2[C@@H]3[C@H](O)C[C@H]4C[C@@H](NCCCNCCCCN)CC[C@]4(C)[C@H]3CC[C@]12C)OS(=O)(=O)O (single isomer, unassigned) [squalamine (ENT-01)]
[1]; Stage 2, fixed dose, n = 34, baseline 1.2 (0.90), P 2.3 × 10^−8
  CSBM, weekly average (mean, SD): 3.8 /week and 3.8 (2.40) /week
[1]; Stage 2, fixed dose, n = 34, baseline 1.8 (1.92), P 1.33 × 10^−5
  Suppository use / rescue medication, weekly average (mean, SD): 0.3 /week and 0.3 (0.67) /week
[1]; Stage 2, fixed dose, n = 34, baseline 2.6 (1.45), P 6.4 × 10^−6
  SBM, weekly average (mean, SD): 4.5 /week and 4.5 (2.21) /week
[1]; Stage 2, wash-out, Bristol stool scale, baseline 2.7 (1.20), P vs. baseline 0.85
  Consistency (Mean, SD): 2.8 (1.39)
[1]; Stage 2, wash-out, baseline 1.2 (0.90), P wash-out vs. baseline 0.01
  CSBM (Mean, SD): 1.8 (1.19) /week
[1]; Stage 2, wash-out, baseline 1.3 (0.45), P vs. baseline 0.11
  PAQ-SYM (Mean, SD): 1.1 (0.60)
[1]; Stage 2, wash-out, baseline 1.4 (0.49), P vs. baseline 0.04
  PAQ-QOL (Mean, SD): 1.2 (0.63)
[1]; Stage 2, wash-out, baseline 1.8 (1.92), P vs. baseline 0.13
  Rescue meds (Mean, SD): 1.0 (1.40) /week
[1]; Stage 2, wash-out, baseline 2.6 (1.45), P vs. baseline 0.16
  SBM (Mean, SD): 3.2 (1.80) /week
[1]; Stage 2, wash-out, ease of evacuation scale, baseline 3.2 (0.73), P vs. baseline 0.78
  Ease (Mean, SD): 3.3 (0.81)
[1]; fixed dose vs baseline (2.6 to 4.5)
  improvement of SBM/week: 73%
[1]; patients with baseline ≥1 CSBM/week, relation to baseline severity p=0.00055
  mean dose required for a prokinetic response: 120 mg
[1]; Treatment arm (n = 6), fixed dose period, baseline 0.8
  CSBM/week: 3.2 CSBM/week
[1]; Treatment arm (n = 6), randomized period (4-6 days), baseline 0.8
  CSBM/week: 2.4 CSBM/week
[1]; Treatment arm (n = 6), washout, baseline 0.8
  CSBM/week: 0.9 CSBM/week
[1]; patients later given placebo (n = 9), fixed dose period on drug, baseline 1.6
  CSBM/week: 3.3 CSBM/week
[2]; Stage 2, 15/34
  patients with diarrhea: 44%
[2]; Stage 2, 34 dosed
  patients who withdrew during dosing because of diarrhea: 2
[2]; Stage 2, dosed 34
  adverse event: Abdominal pain, Mild: 4 n
  adverse event: Abdominal pain, Moderate: 2 n
  adverse event: Diarrhea, Mild: 12 n
  adverse event: Diarrhea, Moderate: 2 n
  adverse event: Diarrhea, Severe: 1 n
  adverse event: Difficulty falling asleep, Mild: 1 n
  adverse event: Difficulty falling asleep, Moderate: 0 n
  adverse event: Dizziness, Mild: 7 n
  adverse event: Dizziness, Moderate: 1 n
  adverse event: Eye infection, Mild: 1 n
  adverse event: Eye infection, Moderate: 0 n
  adverse event: Flatulence, Mild: 1 n
  adverse event: Flatulence, Moderate: 0 n
  adverse event: Headache, Mild: 3 n
  adverse event: Headache, Moderate: 0 n
  adverse event: Increased urinary frequency, Mild: 2 n
  adverse event: Increased urinary frequency, Moderate: 0 n
  adverse event: Nausea, Mild: 18 n
  adverse event: Nausea, Moderate: 1 n
  adverse event: Skin lesions-rash, Mild: 3 n
  adverse event: Skin lesions-rash, Moderate: 0 n
  adverse event: Urinary retention, Mild: 1 n
  adverse event: Urinary retention, Moderate: 0 n
  adverse event: Urinary tract infection, Mild: 1 n
  adverse event: Urinary tract infection, Moderate: 2 n
  adverse event: Vomiting, Mild: 2 n
  adverse event: Vomiting, Moderate: 0 n
  adverse event: Worsening acid reflux, Mild: 4 n
  adverse event: Worsening acid reflux, Moderate: 0 n
  adverse event: Worsening hemorrhoid, Mild: 1 n
  adverse event: Worsening hemorrhoid, Moderate: 0 n
[2]; Stage 2, dosed 34, colonic diverticulosis, polyp, patient on aspirin, Plavix and naproxen, unrelated to ENT-01
  adverse event: Lower GI bleed, Severe: 1 n
[2]; [12]
  adverse event: Blood in urine, Mild: 0 n
  adverse event: Blood in urine, Moderate: 0 n
  adverse event: Loss of appetite, Mild: 0 n
  adverse event: Loss of appetite, Moderate: 0 n
[2]; Stage 2, two of 34 dosed
  patients terminated prior to completion because of recurrent dizziness: 5.8%
[3]; 25 mg
  cumulative prokinetic response rate (patients with a CSBM within 24 hours of dosing): 25%
[3]; 200 mg (maximum)
  cumulative prokinetic response rate (patients with a CSBM within 24 hours of dosing): 80%
[4]; Stage 2, fixed dose, n = 34, P 0.45
  PDHQ (Mean): 1.8
[4]; Stage 2, fixed dose, n = 34, P 0.14
  BDI-II (Mean): 9.9
[4]; Stage 2, wash-out, n = 34, P 0.03
  PDHQ (Mean): 0.9
[4]; Stage 2, wash-out, n = 34, P 0.10
  BDI-II (Mean): 8.7
[4]; Stage 2, wash-out, n = 34, baseline 11.6 (6.51), P 0.06
  UPDRS Part 1 (NMS) (Mean): 9.5
[4]; during treatment, hallucinations in 5 patients and delusions in 1 patient at baseline
  patients in whom hallucinations and delusions improved or disappeared: 5 of 6
[5]; C. elegans model of PD in vivo
  effect on formation of aggregates of αS: inhibit the formation of aggregates of αS
[6]; 1/44
  patients with worsening of hemorrhoids: 2.2%
[6]; 2/44
  patients with worsening of acid reflux: 4.5%
[6]; 3/44
  patients with flatulence: 6.8%
  patients with vomiting: 6.8%
[6]; 8/44
  patients with dizziness: 18%
[6]; 11/44
  patients with abdominal pain: 32%
[7]
  adverse event: Abdominal pain, Mild: 2 (20) n, %
  adverse event: Abdominal pain, Moderate: 3 (30) n, %
  adverse event: Diarrhea, Mild: 1 (10) n, %
  adverse event: Diarrhea, Moderate: 3 (30) n, %
  adverse event: Diarrhea, Severe: 0 n, %
  adverse event: Difficulty falling asleep, Mild: 0 n, %
  adverse event: Difficulty falling asleep, Moderate: 0 n, %
  adverse event: Dizziness, Mild: 0 n, %
  adverse event: Dizziness, Moderate: 0 n, %
  adverse event: Eye infection, Mild: 0 n, %
  adverse event: Eye infection, Moderate: 0 n, %
  adverse event: Flatulence, Mild: 2 (20) n, %
  adverse event: Flatulence, Moderate: 0 n, %
  adverse event: Headache, Mild: 1 (10) n, %
  adverse event: Headache, Moderate: 0 n, %
  adverse event: Increased urinary frequency, Mild: 0 n, %
  adverse event: Increased urinary frequency, Moderate: 0 n, %
  adverse event: Nausea, Mild: 4 (40) n, %
  adverse event: Nausea, Moderate: 0 n, %
  adverse event: Skin lesions-rash, Mild: 0 n, %
  adverse event: Skin lesions-rash, Moderate: 0 n, %
  adverse event: Urinary retention, Mild: 0 n, %
  adverse event: Urinary retention, Moderate: 0 n, %
  adverse event: Urinary tract infection, Mild: 0 n, %
  adverse event: Urinary tract infection, Moderate: 0 n, %
  adverse event: Vomiting, Mild: 1 (10) n, %
  adverse event: Vomiting, Moderate: 0 n, %
  adverse event: Worsening acid reflux, Mild: 0 n, %
  adverse event: Worsening acid reflux, Moderate: 0 n, %
  adverse event: Worsening hemorrhoid, Mild: 0 n, %
  adverse event: Worsening hemorrhoid, Moderate: 0 n, %
[7]; unrelated to ENT-01
  adverse event: Blood in urine, Mild: 1 (10) n, %
  adverse event: Blood in urine, Moderate: 0 n, %
  adverse event: Loss of appetite, Mild: 1 (10) n, %
  adverse event: Loss of appetite, Moderate: 0 n, %
  adverse event: Lower GI bleed, Severe: 0 n, %
[8]
  effect on formation of aggregates of αS: inhibit the formation of aggregates of αS

## CC(C)[C@@H](CC[C@@H](C)[C@H]1CC[C@H]2[C@@H]3[C@H](O)C[C@H]4C[C@@H](NCCCNCCCCN)CC[C@]4(C)[C@H]3CC[C@]12C)OS(=O)(=O)O [squalamine]
[9]
  effect on gastrointestinal dysmotility: reverse gastrointestinal dysmotility
[10]
  clearance and excretion: cleared by the liver and excreted as the intact molecule
[5]; C. elegans model
  effect on muscle paralysis: complete reversal of muscle paralysis

## CCCCC(F)(F)[C@@]1(O)CC[C@H]2[C@@H](CC(=O)[C@@H]2CCCCCCC(=O)O)O1 [Lubiprostone]
[11]
  share of treated patients in whom effective: about 50%
